Data on one compound can be found in patent publication US20070161691A1, “Modified-protein formation inhibitor” (TOKAI UNIVERSITY, priority 2003, published 2007).

Data set [1] deals with ischemia-reperfusion acute renal failure model. Put plainly: Renal protective effect on ischemia-reperfusion acute renal failure model rat. Type of data set: in vivo. As to conditions: 1 mg/kg once a day, 2 days. As for the experimental part: This condition model is typical acute renal failure model. To prepare the model, operated on wistar rat (male, body weight 150 g, 6 weeks aged) to remove right kidney, and on the following day, renal artery of remaining left kidney was applied a ligature with clip under general anesthesia. […] After preparing the ischemia-reperfusion model, test compound (4-(5-phenyltetrazol-1-yl methyl)-morpholine (compound 1), 1 mg/kg body weight, once a day) was suspended in 0.5% carboxymethylcellulose. The suspension was coercively administered 2 days continuously, on third day kidney was obtained, and analysed pathologically (renal tubular stromal disorder score). In particular, the kidney was stained by PAS according to conventional method and the renal tubular stromal disorder was estimated for the presence or absence of renal tubular necrosis, renal tubular hypertrophy, renal tubular atrophia, renal tubular basal lamina thickening and cast in the sustained image of kidney. As well as biochemical analysis of blood was carried out (contract clinical analysis organization: SRL).

For data set [2], the system named is middle cerebral artery ischemia-reperfusion model. Put plainly: Cerebroprotective action in middle cerebral artery ischemia-reperfusion model. Type of data set: in vivo, rat. As to conditions: after reperfusion 22 hrs.
The nature of data set [3]: Vitamin B6 (PLP; pyridoxal phosphate) trapping. Type of data set: biochemical. As to conditions: 500 μM compound, 50 μM PLP, PBS. The method, then:
To a solution of vitamin B6, the compound of this invention is added, and after a certain period of time, an amount of vitamin B6 remained is determined.
4-(5-phenyltetrazol-1-ylmethyl)-morpholine (Compound 1), 5-methyl-1-(5-phenyltetrazol-1-ylmethyl)-3a,6a-dihydro-1H-pyrrolo[3,4-d][1,2,3]triazol-4,6-dione (Compound 2) and (5-phenyltetrazol-1-yl)methanol (Compound 3) as well as aminoguanidine as the positive control were each dissolved in DMSO in a designed concentration to make a sample solution. DMSO itself was used as the negative control. In addition, pyridoxal phosphate (PLP) was dissolved in purified-water to make a designed concentration. PBS was added to each of the test compound, the positive control and the negative control, to make a final concentration of 500 μM. The PLP solution as above prepared was added to each of the resultant solution to make a final concentration of 50 μM for preparation of the PLP reaction solution. Using HPLC, the amount of PLP in the PLP reaction solution was determined after 0.1 and 10 hours, from which the PLP trapping amount of each test compound was ascertained.
The analysis of PLP using HPLC was carried out by separation with reverse-phase C18 column (4.6×250 mm, 5 μm; Waters) and by using a fluorescence detector (RF-10A; Shimazu Seisakusho; excitation wavelength, 300 nm and fluorescence wavelength, 400 nm). In the mobile phase, the flow rate was 0.6 mL/min and the concentration of buffer B was varied from 0% to 3% in 25 minutes (buffer A: 0.10% trifluoroacetic acid; buffer B: 80% acetonitrile containing 0.08% trifluoroacetic acid).

Data set [4] relates to ICR mice. The experiment in a line: Acute toxicity examination, single oral administration to mouse. The settings on record: in vivo, po. As for the experimental part:
(§1) For 4-(5-phenyltetrazol-1-ylmethyl)-morpholine (compound 1) and (5-phenyltetrazol-1-yl) methanol (compound 3), acute toxicity test was carried out using mice. Each compounds were suspended in carboxymethyl cellulose in given concentration to prepare sample for oral administration. Then single oral administration was done to mouse. The dose is 100, 250, 500, 1000 and 2000 mg/kg. Five ICR mice (male , 8 weeks aged, closed colony) were used in each group. The test material was administrated to determine LD50 value.

Test in data set [5]: as above
As to conditions: male, in vivo, ICR mice, single oral administration. As for the experimental part:
as §1

Data set [6] in a line: Absorbability examination, oral administration to rat. Type of data set: in vivo. The settings on record: 50 mg/kg oral. The method, then: For 4-(5-phenyltetrazol-1-yl methyl)-morpholine (compound 1) and (5-phenyltetrazol-1-yl)methanol (compound 3), their sorbability were examined. Each compounds are suspended in carboxymethyl cellulose in given concentration to prepare sample for oral administration. Then each samples were administered in the ratio of 50 mg/kg to rat using sonde. Five Wister rats (male, 8 weeks aged, closed colony) were used every one group. At one hour, 2 hours, 6 hours and 24 hours after the administration of compound, blood was obtained. The obtained blood samples were immediately cetrifuged at 3000 rpm for 15 minutes to obtain the blood plasma and the concentration of the compound in the specimen was quantitated by HPLC. Briefly, to 100 μL of obtained blood plasma was added to 200 μL of acetonitrile, centrifuged at 12000 rpm for 10 minutes to obtain supernatant, deproteinized and served to HPLC. The measuring condition of HPLC was selected from suitable condition for each compounds to separate and quantify. For example, in case of 4-(5-phenyltetrazol-1-yl methyl)-morpholine (compound 1), separated with reverse-phase C18 column (4.6×250 mm, 5 μm: Waters), and then detected using ultraviolet detector (RF-10A: Shimazu Seisakusho) at 240 nm of wavelength to quantify. In mobile phase, the flow rate is 0.8 mL/min and solvent is water: acetonitrile.

Usually LD50 stands for the dose at which mortality reaches 50%. Low readings indicate greater toxicity, high ones lower toxicity. For `c1ccc(-c2nnnn2CN2CCOCC2)cc1` [Compound 1, 4-(5-phenyltetrazol-1-ylmethyl)-morpholine], in data set [1], the BUN result is on record as “BUN reducing effect”. Besides, the “Nervous condition estimation test, Ave (Bederson grade)” value in data set [2] is 1.8. Besides, the PLP trapping entry in data set [3] is listed as “none”. For the same compound, the “toxicity” value in data set [4] is listed as “lower toxicity”. The compound also showed an LD50 in data set [5] of more than 1000 mg/kg. Besides, the “sorbability (plasma concentration after oral administration)” value in data set [6] is given as “good sorbability”.
